Experimental findings from US8053445B2, “Utilities of olefin derivatives” (Shionogi & Co., Ltd., priority 2001, dated 2011) are described below.

For one series, the system named is promoter region of the gene encoding human apoAI. The series is described as follows: Activity to enhance the expression of human apoAI (apoAI promoter-luciferase reporter in HepG2 cells). The note with it: HepG2 cells stably expressing apoAI promoter-luciferase reporter; compounds at 0 to 10 μg/mL, 24 hours incubation. The format is cell-based. The protocol:
The promoter region of the gene encoding human apoAI was isolated, and ligated upstream the structure gene of firefly luciferase to construct a reporter plasmid. The reporter plasmid and a marker plasmid conferring the neomycin resistance were co-infected to cell lines derived from human hepatoma, HepG2 cells, and the cell lines were incubated in a selection medium comprising DMEM medium containing 10% fetal calf serum supplemented with G418 (Final concentration: 0.7 mg/mL, Gibco) to give established strains that stably expressed the reporter molecule. The strains were seeded to a 96-well culture plates at a density of 50,000 cells per well, and incubated for 48 hours at 37° C. under an atmosphere of 5% carbon dioxide. […] The concentration of the compounds, which intensified the luciferase activity twice compared to that of control (DMSO without any compound of the invention added) was set as the minimal effective dose (MED).
Turning to “2-(2-thiophen-3-yl-vinyl)benzothiazole [Ib-91]”, the “MED (minimum effective dose: concentration of the compound which intensified the luciferase activity twice compared to control)” value turned out to be 0.7 µg/mL.
In the case of “2-phenyl-5-pyridin-2-yl-penta-2,4-diene nitrile [Ic-76]”, the “MED (minimum effective dose: concentration of the compound which intensified the luciferase activity twice compared to control)” value was 0.23 µg/mL.
Same read-out and setting: then `FC(F)(F)c1ccc(C=Cc2ccccn2)cc1` [Ib-9, 2-[2-(4-trifluorophenyl)vinyl]pyridine], with 0.71 µg/mL.
On the same count and under the same terms, then `COc1cc(C=CC=Cc2ccccn2)ccc1OC(C)=O` [Ic-18, phenyl 2-methoxy-4-(4-pyridin-2-yl-buta-1,3-dienyl)acetate], with 1.9 µg/mL; and `C(=Cc1ccccc1)Sc1ccccn1` [Id-4, 2-styrylsulfanil-pyridine], with 1.0 µg/mL.

Test system in another series: not given
Assay: not given
Details: not given
`COc1ccc(-c2cnc3ccccc3n2)cc1` [Ia-3, 2-(4-methoxyphenyl)quinoxaline] showed a melting point of 101 to 102 °C.
Molecule `c1ccc2nc(-c3ccsc3)cnc2c1` [Ia-6, 2-(thiophen-3-yl)quinoxaline] had a melting point of 86 to 87 °C.
`c1ccc(-c2ccc(-c3cnc4ccccc4n3)cc2)cc1` [Ia-10, 2-(biphenyl-4-yl)quinoxaline] yielded a melting point of 126 to 127 °C.
Turning to `c1ccc(-c2ccc(-c3ccc4ccccc4n3)cc2)cc1` [Ia-12, 2-(biphenyl-4-yl)quinoline], the melting point fell in the range of 180 to 182 °C.
Molecule `c1ccc2nc(-c3ccsc3)ccc2c1` [Ia-15, 2-(thiophen-3-yl)quinoline] had a melting point of 132 to 133 °C.
For the molecule `Clc1ccc(-c2ccc3ccccc3n2)cc1` [Ia-16, 2-(4-chlorophenyl)quinoline], the melting point was in the range of 113 to 115 °C.
